In patent publication US20230159910A1, “DIMETHYLMONOTHIOARSINIC ACID-INDUCED MALIGNANTLY TRANSFORMED CELL LINE OF HUMAN KERATINOCYTES AND USE THEREOF” (SOOCHOW UNIVERSITY, priority 2021, published 2023):

Columns and labels:
Format in all cases: cell-based, human
HaCaT cells [1] = assay: Cell doubling time after persistent exposure of sub-cultured HaCaT cells; conditions: persistent exposure to 1.0 μM; 28th, 35th passage; vs passage control, P<0.05; FIG. 3
Method: (§1) Two dishes of normal HaCaT cells (cell passage 0) were prepared. One dish of cells was persistently and chronically exposed to and incubated with Dulbecco's modified Eagle's medium (DMEM) with high glucose with 1.0 μM DMMTAv (containing 100 μg/ml streptomycin, 100 U/ml penicillin and 10% fetal bovine serum), and the medium was refreshed every 24 h. When the cells were grown to a confluency reaching 80%, the cells were sub-cultured and expanded up to the 35th passage. The other dish of cells was persistently and chronically exposed to and normally incubated with Dulbecco's modified Eagle's medium (DMEM) with high glucose (containing 100 μg/ml streptomycin, 100 U/ml penicillin and 10% fetal bovine serum), and the medium was refreshed every 24 h. When the cells were grown to a confluency reaching 80%, the cells were normally sub-cultured and expanded up to the 35th passage and used as the passage control group. One monitoring point is set every 7 passages to detect the cell doubling time of the 0th, 1st, 7th, 14th, 21st, 28th, 35th passages in the exposure group and the passage control group.
(§2) By detecting the changes in the matrix metalloproteinase-9 (MMP-9), the cell doubling time, the cell migration ability and cell anchoring independent growth, whether the cell undergoes malignant transformation is determined. […]

HaCaT cells [2] = assay: Malignant transformation of HaCaT cells by long-term exposure; conditions: long-term exposure to 1.0 μM, subculture to 35th passage
Method: as §1, §2

HaCaT cells [3] = assay: Cell migration ability by scratch test; conditions: persistent exposure to 1.0 μM, 35th passage, vs passage control, P<0.05, FIG. 4
Method: as §1, §2

HaCaT cells [4] = assay: Cell survival of HaCaT cells by CCK-8 kit (determination of exposure dose); conditions: HaCaT cells treated 24 h with 0-2 μM, FIG. 1
Method: Determination of appropriate exposure dose: After the HaCaT cells were treated with various concentrations (0-2 μM) of DMMTA^v for 24 h, and the cell survival was detected by the CCK-8 kit. The chronic exposure dose of DMMTA^v is determined to be 1.0 μM.

HaCaT cells [5] = assay: MMP-9 secretion after persistent exposure of sub-cultured HaCaT cells; conditions: persistent exposure to 1.0 μM; 21st, 28th and 35th passages; P<0.05; FIG. 2
Method: as §1, §2

HaCaT cells [6] = assay: Cell anchoring independent growth by soft agar colony forming test; conditions: persistent exposure to 1.0 μM, 35th passage, FIG. 5
Method: as §1, §2

C[As](C)(O)=S [DMMTA^v, dimethylmonothioarsinic acid]
cell doubling time (HaCaT cells [1]): significantly reduced | induction of malignant transformation of HaCaT cells (HaCaT cells [2]): can induce HaCaT cells to undergo malignant transformation | cell migration ability (HaCaT cells [3]): significantly enhanced | dose with the highest cell survival rate (chronic exposure dose) (HaCaT cells [4]): 1.0 µM | secretion of MMP-9 compared with the passage control group (HaCaT cells [5]): significantly increased | colony formation in soft agar (HaCaT cells [6]): can form obvious colonies in soft agar | colony formation rate compared with the passage control group cells (HaCaT cells [6]; soft agar, P<0.05): significantly higher
